Experimental data as given in ChEMBL document CHEMBL1134911, “Nodulisporic acid B, B1, and B2: a series of 1'-deoxy-nodulisporic acids from Nodulisporium sp” (Bioorg Med Chem Lett, 2002).

Experiment: Lethal dose was evaluated against flea
Conditions: pulicinae; call rule not given here
C=C(C)[C@H]1Cc2c3c(cc4c5c(n1c24)[C@@]1(C)[C@@H](CC[C@H]2[C@](C)(/C=C/C=C(\C)C(=O)OC)[C@@H](O)CC[C@@]21C)C5)C1=CC(C)(C)OC(C)(C)[C@H]1[C@@H]3O showed an LD90 of 100 p.p.m.
Compound C=C(C)[C@H]1C(=O)c2c3c(cc4c5c(n1c24)[C@@]1(C)[C@@H](CC[C@H]2[C@](C)(/C=C/C=C(\C)C(=O)OC)[C@@H](O)CC[C@@]21C)C5)C1=CC(C)(C)OC(C)(C)[C@H]1[C@@H]3O has an LD90 of 10 p.p.m.
For C=C(C)[C@H]1Cc2c3c(cc4c5c(n1c24)[C@@]1(C)[C@@H](CC[C@H]2[C@](C)(/C=C/C=C(\C)C(=O)[O-])[C@@H](O)CC[C@@]21C)C5)C1=CC(C)(C)OC(C)(C)[C@H]1[C@@H]3O.[Na+], the LD90 was 100 p.p.m.
In the case of C=C(C)[C@H]1C(=O)c2c3c(cc4c5c(n1c24)[C@@]1(C)C(CC[C@H]2[C@](C)(/C=C/C=C(\C)C(=O)O)[C@@H](O)CC[C@@]21C)C5)C1=CC(C)(C)OC(C)(C)C1[C@@H]3O (stereo partly specified) [NOD ACID A], the LD90 is reported as 1 p.p.m.
In the case of C=C(C)[C@H]1C(=O)c2c3c(cc4c5c(n1c24)[C@@]1(C)[C@@H](CC[C@@H]2[C@]1(C)CC[C@]1(O)O[C@H](/C=C(\C)C(=O)O)C[C@@]21C)C5)C1=CC(C)(C)OC(C)(C)[C@H]1[C@@H]3O [NODULISPORIC ACID A1], the LD90 is reported as 5 p.p.m.
In the case of C=C(C)[C@H]1C(=O)c2c3c(cc4c5c(n1c24)[C@@]1(C)[C@@H](CC[C@@H]2[C@]1(C)CC[C@]1(O)O[C@H](C(O)C(C)C(=O)O)C[C@@]21C)C5)C1=CC(C)(C)OC(C)(C)[C@H]1[C@@H]3O (stereo partly specified) [NODULISPORIC ACID A2], the LD90 is reported as 10 p.p.m.
IVERMECTIN gave an LD90 of 10 p.p.m.

Experiment: Lethal dose was evaluated against flea; NA means not active at 100 ppm
Assay type: ADME
Conditions: pulicinae
In the case of C=C(C)[C@H]1Cc2c3c(cc4c2N1C(=O)[C@@]1(C)[C@@H](CC[C@H]2[C@](C)(/C=C/C=C(\C)C(=O)OC)[C@@H](O)CC[C@@]21C)CC4=O)C1=CC(C)(C)OC(C)(C)[C@H]1[C@@H]3O, the LD90 is reported as “Not Active”.
In the case of C=C(C)[C@H]1Cc2c3c(cc4c5c(n1c24)[C@@]1(C)[C@@H](CC[C@@H]2[C@]1(C)CC[C@]1(O)O[C@H](C(O)C(C)C(=O)[O-])C[C@@]21C)C5)C1=CC(C)(C)OC(C)(C)[C@H]1[C@@H]3O.[Na+] (stereo partly specified), the LD90 is reported as “Not Active”.
With C=C(C)[C@H]1Cc2c3c(cc4c5c(n1c24)[C@@]1(C)[C@@H](CC[C@@H]2[C@]1(C)CC[C@]1(O)O[C@H](/C=C(\C)C(=O)[O-])C[C@@]21C)C5)C1=CC(C)(C)OC(C)(C)[C@H]1[C@@H]3O.[Na+] the LD90 was “Not Active”.

Experiment: Lethal dose was evaluated against flea; partial activity
Assay type: ADME
Conditions: pulicinae
C=C(C)[C@H]1Cc2c3c(cc4c5c(n1c24)[C@@]1(C)[C@@H](CC[C@H]2[C@](C)(/C=C/C=C(\C)C(=O)OC)[C@@H](O)CC[C@@]21C)C5)C1=CC(C)(C)OC(C)(C)[C@H]1[C@@H]3O showed an LD90 of 10 p.p.m.
